{"source": "patent US8933122B2", "about": "“Use of cationic surfactants as sporicidal agents” (Laboratorios Miret, S.A., priority 2008, dated 2015)", "test_system": "endospores from Clostridium sporogenes ATCC 7955", "assay": "Sporicidal activity, quantitative suspension test EN 13704:2002 (Example 5)", "format": "cell-based", "conditions": "60 minutes contact, 20° C.; for Test of LAE sporicidal activity (Na), surviving spores count: water as interfering substance, N 1.3 × 10^6 cfu/mL", "description": "The determination of the sporicidal activity of LAE has been carried out according to the European standard EN 13704:2002 Chemical disinfectant—Quantitative suspension test for the evaluation of sporicidal activity of chemical disinfectants used in food, industrial, domestic and institutional areas—Test method and requirements”.\nA test suspension containing endospores from Clostridium sporogenes ATCC 7955 was prepared from a culture grown on a nutrient agar, to which additional sporulation enhancement ingredients were added. Plates were harvested with sterile water and endospores were purified by repeated centrifugations and resuspensions in water.\nNeutralizer. The neutralizer mixture consisted of 30 g/L polysorbate 80 in water. The solution was intended to neutralize any chemicals so that these would not affect subsequent growth of the bacteria.\nThe sporicidal activity of a given product is defined by its capacity to reduce at least by 10^3 the amount of Clostridium sporogenes bacterial spores in suspension, in the conditions established in the method.\nThe product was in contact with a suspension of bacterial spores during an established period of time of 60 minutes. An interfering substance can be added to the suspension, in this case water. Next, the effect of the product is neutralized by adding a neutralizer previously chosen, preceding to the surviving spores count.\n• 1. Spore suspension obtained from a spored-form culture of Clostridium sporogenes. • 2. Count of the spore suspension of Clostridium sporogenes. • 3. The possible toxic effect of the neutralizer on the spores in the absence of the product is valued. • 4. […] Results: Results are expressed as the reduction of viability of the spore suspension in regards to: […]\nSporicidal activity is calculated following the criteria of the Standard EN 13704: 2002 R=N×0.1/Na N is cfu/mL of the spore suspension. […] The calculated reduction (R) of a solution of: • 13 μg/mL of LAE is R<10^3 cfu/mL • 26 μg/mL of LAE is R<10^3 cfu/mL • 51 μg/mL of LAE is R>10^3 cfu/mL • 64 μg/mL of LAE is R>10^3 cfu/mL"}
{"smiles": "CCCCCCCCCCCC(=O)N[C@@H](CCCN=C(N)N)C(=O)OCC.Cl", "note": "[LAE, ethyl ester of the lauramide of the arginine monohydrochloride]", "values": [{"measurement": "concentration displaying sporicidal activity (reduction equal or above 10^3)", "setting": "EN 13704:2002", "result": "≥ 51", "unit": "μg/mL"}, {"measurement": "Test of LAE sporicidal activity (Na), surviving spores count", "setting": "LAE 13 μg/mL", "result": "3.3 × 10^3 cfu/mL"}, {"measurement": "Test of LAE sporicidal activity (Na), surviving spores count", "setting": "LAE 26 μg/mL", "result": "2.3 × 10^3 cfu/mL"}]}
